The values that follow come from patent US5369030A, “Method of inducing cellular differentiations and altering cell phenotype using ceramide analogs” (Duke University, priority 1992, dated 1994).

In assay [1] the test system is HL-60 cells. Kind of assay: HL-60 cell growth/proliferation, cells counted with a hemocytometer. Format: cell-based, human. The settings on record: for cell density / inhibition of cell growth (in words): Example 3C; for cell density: starting density 2×10^5 cells/ml; for inhibition of cell growth (in words): time course to 108 hours. The protocol: (§1) Human myelocytic leukemia HL-60 cells (20-45 passages (American Type Culture Collection, Rockville, Md., accession no. CCL 240) were obtained and grown in RPMI 1640 medium (Sigma Chemical Co., St. Louis, Mo.) containing 10% fetal calf serum at 37° C. in 5% CO2 incubator at a cell density of 2×10^5 cells/mi. The cells were washed once with phosphate buffered saline (PBS) and resuspended in serum-free media containing insulin (5 mg/liter) and transferrin (5 mg/liter) for 2-3 hours before treatment with various compounds.
HL-60 cells were treated with 3 μM of Cn-L-t-APPD with acyl chain lengths of C6, C8, C10, C12, C14, C16, and C18 (m=4, 6, 8, 10, 12, 14 and 16) in fresh ehtanol solution or with an ethanol vehicle and cell growth was determined following three days of treatment. Cell growth was quantified using a hemocytometer. Cell viability was judged by the ability to exclude trypan blue dye. Viability was always more than 80% unless otherwise described.
HL-60 cells (starting cell density of 2×10^5 cells/ml) were treated with different concentrations of C14-L-t-APPD and cells were counted following 24 and 72 hours of treatment. The results are representative of three experiments. A 1μM dose of C14-L-t-APPD had little or no effect on cell growth at 24 or 72 hours (approximately 105% and 130% of control, respectively). A 2μM dose inhibited cell growth to approximately 65% of the control at both 24 and 72 hours. […] The IC50% was approximately 2 μM (10 fmol/cell). IC50% is the concentration of test compound that causes 50% inhibition of cell growth in comparison with controls. Thus, similar to results with C2-ceramide, C14-APPD inhibited cell proliferation at different durations of treatment.
HL-60 cells (starting cell density of 2×10^5 cells/ml) were treated with 3 μM Cn-L-t-APPD derivatives with N-acyl chain lengths of C6, C8, C10, C12, C14, C16, and C18 (m=4,6,8,10, 12, 14, and 16) and cells were counted at 0, 12, 36, 60, 84 and 108 hours post treatment. The results are representative of 3 experiments.
N-acyl derivatives of 2-amino-1-(4'-nitrophenyl)-1,3-propanediol (Cn-D-t-ANPPD) were tested to determine the effects of chain length on HL-60 cell growth as described in Examples 3 A. HL-60 cells (at a starting cell density of 2×10^5 cells/ml) were treated with 3 μM of the diff analogs (C6, C8, C10, C12, C14, C16 and C18) of Cn-D-t-ANPPD, and cell growth was determined at three days. The control received no Cn-D-t-ANPPD. Treatment of HL-60 cells with C2-ceramide is included for comparison.
HL-60 cells were treated with the indicated concentrations and cell growth was determined following three days of treatment as described in Example 3B.
The suitability of phenylaminopropanediol derivatives as analogs of ceramide allowed further investigation of the structural requirements for ceramide-mediated biology. For these experiments, C14 (N-myristoyl) derivatives of different phenylaminoalcohols were synthesized and examined for their biologic activity. HL-60 cells (starting cell density of 2×10^5 cells/ml) were treated with 3 μM of C14 derivatives C14-L-t-APPD, C14-D-t-ANPPD, C14-D-e-APP-1, C14-L-e-APP-1, C14-APP-3 and C14-D-APP3. The structures of these compounds are provided in Table I. Cell growth was determined at 3 days as described in Example 3A. The results shown are averages of two determinations, and are representative of five different experiments.
and C14-L-e-APP-1 HL-60 cells were treated as described in Example 3B. growth was determined after 3 days of treatment.

Assay [2] deals with HL-60 cells. Kind of assay: HL-60 differentiation, H2O2 generation. The settings on record: for H2O2 generation: 2 μM C2-ceramide alone. In kind it is cell-based, human. On the procedure: as §1
Therefore, 3 μM C14-L-t-APPD was applied to HL-60 cells either alone or in combination with subthreshold levels (0.3 nM) of 1,25-dihydroxyvitamin D3 (D3), and cell differentiation was determined at 60 and 108 hours following treatment by quantitating […] generation, a marker of HL-60 differentiation. Subthreshold levels of D3 refers to levels of D3 that are too low to induce differentiation of HL60 cells.
H2 O2 production was quantitated as described in Goodwin, B. J. and Weinberg, J. B., J. Clin. Invest. 70:699-706 (1982) and Pick, E. and Mizel, D. J. Immunol. Methods 46: 211-226 (1981). For comparison, HL60 cell differentiation obtained with 2 μM C2-ceramide alone and 0.3 nM vitamin D3 are were also determined.

The mark [3] stands for this setting: Example 5, 3 μM C14 derivatives, 3 days.
Setting [4] is: Example 4A, Table II, 3 μM Cn-D-t-ANPPD (C2-ceramide concentration not given), three days.
Where [5] appears, read: Homo sapiens, HL-60, 72 h, Example 4A, Table II, 3 μM Cn-D-t-ANPPD (C2-ceramide concentration not given), three days, read-out: CELL GROWTH (% OF CONTROL).
Where [6] appears, read: Example 3A, 3 μM Cn-L-t-APPD, three days.

Structures are written as SMILES. Where two headings read alike, the source gives them in different places.

Consider `CCCCCCCCCCCCCC(=O)N[C@@H](C)[C@H](O)c1ccccc1` (relative stereo) [C14-DL-e-APP-1], for which, in assay [1] (setting [3]), the “cell growth, % of control” value is on record as 60%.
As to `CCCCCCCCCCCCC/C=C/[C@@H](O)[C@H](CO)NC(C)=O` [C2-ceramide, N-acetyl-C18-sphingosine, reference compound], the cell density in assay [1] (C2-ceramide, concentration not given, 108 hours) is 200000 mL⁻¹. Besides, in assay [1] (setting [4]), the “CELL GROWTH (% OF CONTROL)” value is on record as 20 % OF CONTROL. Moreover, the “cell growth, % of control” value in assay [1] (setting [3]) is on record as 20%. Moreover, the H2O2 generation entry in assay [2] (60 hours) and in assay [2] (108 hours) was “approximately 0.3 nmol H2O2 /10^5 cells” each time. The “H2O2 generation, combination” value in assay [2] (2 μM C2-ceramide in combination with 1,25-dihydroxyvitamin D3) is on record as “approximately 0.9 nmol/10^5 cells”.
Take `CCCCCC(=O)N[C@H](CO)[C@H](O)c1ccc([N+](=O)[O-])cc1` [C6-D-t-ANPPD]: the activity at 3 µM in assay [1] (setting [5]) came out at 70%.
`CCCCCC(=O)N[C@@H](CO)[C@@H](O)c1ccccc1` [C6-L-t-APPD]: the “cell growth, % of control” value in assay [1] (setting [6]) was determined as 105%. Moreover, the cell density in assay [1] (3 μM, 60 hours) is 800000 mL⁻¹; in assay [1] (3 μM, 84 hours), 1.4e+06 mL⁻¹; in assay [1] (3 μM, 108 hours), 2.4e+06 mL⁻¹.
For `CCCCCCCC(=O)N[C@H](CO)[C@H](O)c1ccc([N+](=O)[O-])cc1` [C8-D-t-ANPPD], the activity at 3 µM in assay [1] (setting [5]) amounted to 70%.
With `CCCCCCCC(=O)N[C@@H](CO)[C@@H](O)c1ccccc1` [C8-L-t-APPD], the “cell growth, % of control” value in assay [1] (setting [6]) is 104%. The cell density worked out at 800000 mL⁻¹ in assay [1] (3 μM, 60 hours); 1.4e+06 mL⁻¹ in assay [1] (3 μM, 84 hours); 2.4e+06 mL⁻¹ in assay [1] (3 μM, 108 hours).
`CCCCCCCCCC(=O)N[C@H](CO)[C@H](O)c1ccc([N+](=O)[O-])cc1` [C10-D-t-ANPPD]: the activity at 3 µM in assay [1] (setting [5]) is 68%.
Regarding `CCCCCCCCCC(=O)N[C@@H](CO)[C@@H](O)c1ccccc1` [C10-L-t-APPD], in assay [1] (setting [6]), the “cell growth, % of control” value worked out at 90%. Moreover, the cell density was found to be 800000 mL⁻¹ in assay [1] (3 μM, 60 hours); 1.2e+06 mL⁻¹ in assay [1] (3 μM, 84 hours); 2e+06 mL⁻¹ in assay [1] (3 μM, 108 hours). For the same compound, in assay [1] (Homo sapiens, HL-60, 72 h, Example 3A, 3 μM, three days, read-out: reduction of cell growth as compared to a control), the inhibition at 3 µM was roughly 10%.
For the compound `CCCCCCCCCCCC(=O)N[C@H](CO)[C@H](O)c1ccc([N+](=O)[O-])cc1` [C12-D-t-ANPPD], the “CELL GROWTH (% OF CONTROL)” value in assay [1] (Example 4A, Table II, 3 μM Cn-D-t-ANPPD (C2-ceramide concentration not given), three days, listed as C12 chain analog) was “about 4 % OF CONTROL”. Also, in assay [1] (setting [5]), the activity at 3 µM turned out to be 4%.
On to `CCCCCCCCCCCC(=O)N[C@@H](CO)[C@@H](O)c1ccccc1` [C12-L-t-APPD], for which the “cell growth, % of control” value in assay [1] (setting [6]) is “approximately 40%”. Besides, the cell density in assay [1] (3 μM, 60 hours) amounted to 300000 mL⁻¹; in assay [1] (3 μM, 84 hours) it was 300000 mL⁻¹; in assay [1] (3 μM, 108 hours), 600000 mL⁻¹. Also, the “inhibition of cell growth (in words)” value in assay [1] (3 μM) is “able to inhibit cell growth by significant amounts”.
Consider `CCCCCCCCCCCCCC(=O)N[C@H](CO)[C@H](O)c1ccc([N+](=O)[O-])cc1` [C14-D-t-ANPPD], for which the “CELL GROWTH (% OF CONTROL)” value in assay [1] (Example 4A, Table II, 3 μM Cn-D-t-ANPPD (C2-ceramide concentration not given), three days, listed as C14 chain analog) is “about 1 % OF CONTROL”. The activity at 3 µM in assay [1] (setting [5]) worked out at 1%; in assay [1] (Homo sapiens, HL-60, 72 h, Example 4B, Table III, 3 μM, three days, read-out: CELL GROWTH (% OF CONTROL)) it was 3%. In assay [1] (Homo sapiens, HL-60, 72 h, Example 4B, Table III, 0.1 μM, three days, read-out: CELL GROWTH (% OF CONTROL)), the activity at 0.1 µM worked out at 110%. Further, in assay [1] (Homo sapiens, HL-60, 72 h, Example 4B, Table III, 0.2 μM, three days, read-out: CELL GROWTH (% OF CONTROL)), the activity at 0.2 µM turned out to be 112%. Also, the activity at 0.3 µM in assay [1] (Homo sapiens, HL-60, 72 h, Example 4B, Table III, 0.3 μM, three days, read-out: CELL GROWTH (% OF CONTROL)) was 113%. Further, in assay [1] (Homo sapiens, HL-60, 72 h, Example 4B, Table III, 0.5 μM, three days, read-out: CELL GROWTH (% OF CONTROL)), the activity at 0.5 µM was 105%. Moreover, the activity at 1 µM in assay [1] (Homo sapiens, HL-60, 72 h, Example 4B, Table III, 1 μM, three days, read-out: CELL GROWTH (% OF CONTROL)) came out at 85%. Moreover, the activity at 2 µM in assay [1] (Homo sapiens, HL-60, 72 h, Example 4B, Table III, 2 μM, three days, read-out: CELL GROWTH (% OF CONTROL)) was 12%. In assay [1] (Homo sapiens, HL-60, 72 h, Example 4B, Table III, 4 μM, three days, read-out: CELL GROWTH (% OF CONTROL)), the activity at 4 µM was found to be 2%. Further, the IC50 in assay [1] (Homo sapiens, HL-60, 72 h, Example 4B, three days, read-out: concentration for 50% inhibition of cell growth) was roughly 1500 nM.
Consider `CCCCCCCCCCCCCC(=O)N[C@H](C)[C@H](O)c1ccccc1` [C14-D-t-APP-1], for which the “cell growth, % of control” value in assay [1] (setting [3]) is on record as 49%.
The same measure, in the same setting: the figure for `CCCCCCCCCCCCCC(=O)N[C@@H](CO)Cc1ccccc1` [C14-DAPP-3] is 14%; for `CCCCCCCCCCCCCC(=O)N[C@H](CO)Cc1ccccc1` [C14-LAPP-3] it is 15%.
Regarding `CCCCCCCCCCCCCCCC(=O)N[C@H](CO)[C@H](O)c1ccc([N+](=O)[O-])cc1` [C16-D-t-ANPPD], the “CELL GROWTH (% OF CONTROL)” value in assay [1] (setting [4]) is roughly 5 % OF CONTROL. Besides, the activity at 3 µM in assay [1] (setting [5]) is 5%.
As to `CCCCCCCCCCCCCCCC(=O)N[C@@H](CO)[C@@H](O)c1ccccc1` [C16-L-t-APPD], the “cell growth, % of control” value in assay [1] (setting [6]) is on record as roughly 65%. The cell density in assay [1] (3 μM, 60 hours) turned out to be 400000 mL⁻¹; in assay [1] (3 μM, 84 hours) it was 700000 mL⁻¹; in assay [1] (3 μM, 108 hours), 1.2e+06 mL⁻¹. Moreover, in assay [1] (3 μM), the “inhibition of cell growth (in words)” value is listed as “able to inhibit cell growth by significant amounts”.
In the case of `CCCCCCCCCCCCCCCCCC(=O)N[C@H](CO)[C@H](O)c1ccc([N+](=O)[O-])cc1` [C18-D-t-ANPPD], the activity at 3 µM in assay [1] (setting [5]) stood at 82%.
`CCCCCCCCCCCCCCCCCC(=O)N[C@@H](CO)[C@@H](O)c1ccccc1` [C18-L-t-APPD]: in assay [1] (setting [6]), the “cell growth, % of control” value was determined as 116%. The cell density in assay [1] (3 μM, 60 hours) was determined as 800000 mL⁻¹; in assay [1] (3 μM, 84 hours), 1.4e+06 mL⁻¹; in assay [1] (3 μM, 108 hours) it was 2.3e+06 mL⁻¹.
